Non-standard residues stand in square brackets, D forms with d. No end group written: not given here. pS = N[C@@H](COP(=O)(O)O)C(=O)O
Test system: Protein phosphatase 1 (PP1)
Test: Bead-based multiplexed phosphatase activity assay (pIMAGO detection on spectrally encoded beads)
Type: biochemical
Settings: beads incubated with PP1 versus buffer only
Protocol: FIG. 2A-B: Overview and example data from bead-based multiplexed phosphatase activity assay. A) Experimental setup of phosphatase assay. Beads with indicated peptides are incubated with either PP1 (top) or Buffer only (bottom). The beads are washed and the phopsphorylation status of the peptides on the beads is detected using pImago. The beads are analyzed using a microscope capable of exciting beads with UV light and then identifying the spectral code embedded within each bead. B) Preliminary data showing the effect of PP1 phosphatase treatment on the phosphorylation status of the TSFFXGISPIEEEAH peptide (X indicates phosphorylated Serine).
An assay to measure dephosphorylation is performed by incubating the (phospho) substrate peptides, e.g., synthesized directly on the encoded beads, with a phosphatase of interest. […] These images can then be analyzed using open-source image analysis software, e.g., Harink et al., PLOS ONE 2019, to identify the code (and thus the peptide sequence) and amount of phosphorylation associated with each bead. The ratio of phosphorylation detected between a control reaction in the absence of the phosphatase and in the presence of the phosphatase allows determination of how efficiently different peptide sequences are dephosphorylated. […]

pIMAGO signal (phosphorylation status of bead-bound peptide) after PP1 treatment: loss of the signal
Sequence: TSFFXGISPIEEEAH (TSFF[pS]GISPIEEEAH)
